The record followed here is paper PMC4464085, “Exploring monovalent and multivalent peptides for the inhibition of FBP21-tWW” (Beilstein Journal of Organic Chemistry, 2015).

Experiment [1] concerns the target T1, FBP21-tWW (Homo sapiens, UniProt O75554).
T1 construct: made in house; host or cells: E. coli BL21 DE3 (pET28a)
T1 sequence (O75554 122-196 limits assumed): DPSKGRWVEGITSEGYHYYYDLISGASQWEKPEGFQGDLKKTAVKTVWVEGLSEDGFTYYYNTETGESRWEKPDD
Kind of experiment: Isothermal titration calorimetry (ITC) with FBP21-tWW. The experiment is classed as binding. Conditions: PBS pH 7.4, 25 °C. As for the experimental part: ITC measurements were performed to analyze the dissociation constant KD of the interaction between FBP21-tWW and hPG-peptide conjugate 2 in PBS, pH 7.4 (Figure 2A). To compare the KD values we also analyzed the binding between FBP21-tWW and the monovalent peptide ligand Ac-WPPPPRVPRGSG-COOH (Figure 2B). […] However, when considering that ≈7 peptides are bound per nanoparticle, the actual multivalency effect is small.
Gel permeation chromatography (GPC)
Molecular weight distribution of hPG-OH core was determined by means of GPC coupled to a refractive index detector (RI) obtaining the complete distribution (Mn, Mp, Mw, dispersity).
Measurements were carried out under highly diluted conditions (5 mg/mL) from a GPC consisting of an Agilent 1100 solvent delivery system with pump, manual injector, and an Agilent differential refractometer. Three 30 cm columns (PPS: Polymer Standards Service GmbH, Germany; Suprema 100 Å, 1000 Å, 3000 Å with 5 and 10 μm particle size) were used to separate aqueous polymer samples using water with 0.1 M NaNO3 as the mobile phase at a flow rate of 1 mL/min. The columns were operated at room temperature with the RI detector at 50 °C. […]
Peptides were dissolved in PBS and the pH was adjusted to 7.4. hPG-peptide conjugate 2 was dialyzed against Millipore water and the buffer components were adjusted to PBS pH 7.4. The concentration was analyzed for all components by measuring absorbance at 280 nm using a Nanodrop2000 (Thermo Scientific). […] Accounting for the number of peptides on the scaffold, we calculated an extinction coefficient of Ɛ = 38500 M−1cm−1 for the hPG-peptide conjugate 2. […]
The parameters were set to: temperature 25 °C, spacing: 120 s (for WW1 and WW2 measurements) or 180 s (for tWW measurements), stirring speed: 1000 rpm, feedback gain: high, Filter: 5 s, DP: 7 µcal/s. […] The data was analyzed with Origin and the Microcal ITC 200 AddOn. […]
FBP21-WW1 and FBP21-WW2 were expressed as a GST-tagged variant from pgex4T1 in E. coli BL21 DE3, FBP21-tWW was expressed from a pET28a-His6-FBP21-tWW plasmid in E. coli BL21 DE3 as described previously. […]

The target in experiment [2] is T2, FBP21-WW1 (Homo sapiens, UniProt O75554).
T2 construct: with regard to FBP21’s WW domains by ITC; GST (N); made in house; host or cells: E. coli BL21 DE3 (pGEX4T1)
T2 sequence (O75554 122-155 limits assumed): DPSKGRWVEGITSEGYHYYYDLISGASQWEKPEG
The experiment can be described thus: Isothermal titration calorimetry (ITC) with FBP21-WW1. Type of experiment: binding. Conditions: PBS pH 7.4, 25 °C, protein in cell 250 µM, peptide in syringe 5 mM, GST-tagged FBP21-WW1. As to the method: In order to determine an optimal peptide sequence for a FBP21-tWW ligand, we conducted a phage display experiment for each of the two WW domains. Phages used in these experiments carried a randomized X9-peptide fused to phage coat protein VIII [16]. Enrichment factors were calculated after each selection cycle, and reached a plateau after four panning rounds. Phagemids were isolated and sequenced after the third and fourth panning rounds. The sequences for WW1 and WW2 were overlapping to a large extent, showing their similarity in binding preference. This is expected from evolutionary and binding studies carried out earlier. In agreement with previous findings for this group of WW domains a polyproline stretch and an arginine residue are present in most sequenced clones. […] To define an optimized single monovalent binder, we analyzed the affinities for a selected set of ligands from this panel of sequences with regard to FBP21’s WW domains by ITC under the same conditions as were used for the phage display. […] To further analyze which residues are essential for the interaction, we performed substitution analyses using peptide SPOT arrays (Figure 1D, Supporting Information File 1 Figure S1). The experiment gives some insight into binding specificities. The central role of proline P5 for binding of peptides is evident for both WW domains (Figure 1D, Supporting Information File 1 Figure S1). Proline fulfills two requirements. On the one hand it promotes formation of the PPII helix conformation, on the other hand, it is accommodated well into the hydrophobic groove provided by the individual WW domains. At position P4 proline can be replaced by leucine, a residue well compatible with the PPII helical conformation. Arginine is preferred at position 6 or 9, highlighting the importance of a positive charge in complex formation. […] Possibly, the hybrid resonance of the guanidinium group in the arginine is more important in the case of WW2 compared to WW1. […]
(§1) Isothermal titration calorimetry
(§2) The His6-FBP21-tWW, FBP21-WW1 and FBP21-WW2 were dialyzed against PBS, pH 7.4.
(§3) Peptides were dissolved in PBS and the pH was adjusted to 7.4. hPG-peptide conjugate 2 was dialyzed against Millipore water and the buffer components were adjusted to PBS pH 7.4. The concentration was analyzed for all components by measuring absorbance at 280 nm using a Nanodrop2000 (Thermo Scientific). Extinction coefficients were Ɛ = 5500 M−1cm−1 for WPPPPRVPR and Ɛ = 32430 M−1cm−1 for FBP21-tWW. Accounting for the number of peptides on the scaffold, we calculated an extinction coefficient of Ɛ = 38500 M−1cm−1 for the hPG-peptide conjugate 2. ITC experiments were carried out on a Microcal ITC200 (GE Healthcare).
The parameters were set to: temperature 25 °C, spacing: 120 s (for WW1 and WW2 measurements) or 180 s (for tWW measurements), stirring speed: 1000 rpm, feedback gain: high, Filter: 5 s, DP: 7 µcal/s. In ITC measurements with FBP21 WW1 and WW2, the protein in the cell was concentrated to 250 µM, the peptide in the syringe to 5 mM, injected was 1 × 1 µL, then 15 × 2.5 µL. In ITC measurements with FBP21-tWW and peptide the protein concentration in the cell was 200 µM and the peptide concentration in the syringe 4 mM. […] The data was analyzed with Origin and the Microcal ITC 200 AddOn. […]
FBP21-WW1 and FBP21-WW2 were expressed as a GST-tagged variant from pgex4T1 in E. coli BL21 DE3, FBP21-tWW was expressed from a pET28a-His6-FBP21-tWW plasmid in […]

For experiment [3], the target named is T3, FBP21-WW2 (Homo sapiens, UniProt O75554).
T3 construct: with regard to FBP21’s WW domains by ITC; GST (N); made in house; host or cells: E. coli BL21 DE3 (pGEX4T1)
T3 sequence (O75554 163-196 limits assumed): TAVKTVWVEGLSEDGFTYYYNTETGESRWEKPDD
The experiment can be described thus: Isothermal titration calorimetry (ITC) with FBP21-WW2. The experiment is classed as binding. Conditions: PBS pH 7.4, 25 °C, protein in cell 250 µM, peptide in syringe 5 mM, GST-tagged FBP21-WW2. As for the experimental part:
as §1, §2, §3
The parameters were set to: temperature 25 °C, spacing: 120 s (for WW1 and WW2 measurements) or 180 s (for tWW measurements), stirring speed: 1000 rpm, feedback gain: high, Filter: 5 s, DP: 7 µcal/s. In ITC measurements with FBP21 WW1 and WW2, the protein in the cell was concentrated to 250 µM, the peptide in the syringe to 5 mM, injected was 1 × 1 µL, then 15 × 2.5 µL. In ITC measurements with FBP21-tWW and peptide the protein concentration in the cell was 200 µM and the peptide concentration in the syringe 4 mM. In ITC measurements with FBP21-tWW and the hPG-peptide conjugate 2, the concentration of 2 in the cell was 90 µM and FBP21-tWW in the syringe 1.4 mM. Injected was 1 × 1 µL, then 19 × 2 µL. The data was analyzed with Origin and the Microcal ITC 200 AddOn. To obtain the stoichiometry (N) and the […]
particles and grown overnight at 30 °C, 250 rpm. The bacteria were pelleted; Phages were precipitated from the supernatant using 20% PEG, 2.5 M NaCl. The precipitated phages were pelleted and washed before resuspension in PBS/30% glycerol.
Protein expression and purification
FBP21-WW1 and FBP21-WW2 were expressed as a GST-tagged variant from pgex4T1 in E. coli BL21 DE3, FBP21-tWW was expressed from a pET28a-His6-FBP21-tWW plasmid in E. coli BL21 DE3 as described previously. Proteins were purified by the corresponding affinity matrices and applied to a HiLoad S75 Superdex 16/60 column in 1 × PBS, pH 7.4.
Proteins were concentrated by Centrifugal Filter Units (regenerated cellulose, 3000 MWCO, […]
SPOT analyses were performed as described. Membranes were blocked with 5% BSA in PBS, washed and incubated with GST, GST-WW1 or GST-WW2 at a concentration of 7.5 µg/mL (GST) or 10 µg/mL (GST-WW1, GST-WW2) respectively overnight at 4 °C. After washing, the spot arrays were incubated with a primary anti-GST antibody (Santa Cruz, GST-Z5, sc-459, 1:1000) for one hour at room temperature in blocking buffer, washed again and incubated for one hour with a secondary anti-rabbit antibody (goat anti-rabbit, Santa Cruz, sc-2004, 1:10000) at room temperature in blocking buffer. The peptide spot arrays were developed with HRP juice purchased from pjk GmbH on an Intas Advanced Fluorescence and ECL imager.
Synthesis of hPG-peptide conjugate 2
The peptide carboxylic acid, i.e., Ac-WPPPPRVPRGSG-COOH (0.0067 mmol, 9 mg), was dissolved in 2 mL dry DMF and cooled down to 0 °C using an ice bath under argon atmosphere.
To the cooled solution, N-hydroxysuccinimide (0.013 mmol, 1.54 mg) and DCC (0.013 mmol, 2.76 mg) were added. The ice bath was removed and the reaction mixture was allowed to stir at room temperature overnight. […]

Experiment [4] concerns the target T4, hPG-peptide conjugate 2 (also: multivalent conjugation to hyperbranched polyglycerol amine (about 7 peptides per polymer), site not given here).
T4 chain: Ac-WPPPPRVPRGSG
Kind of experiment: ITC.

The target in experiment [5] is T5, Ac-WPPPPRVPRGSG-COOH.
T5 chain: Ac-WPPPPRVPRGSG-OH
Kind of experiment: ITC.

The target in experiment [6] is T6, WPPPPRVPR peptide.
T6 chain: WPPPPRVPR
Kind of experiment: ITC.

Ends that are not written are not given here.

With Ac-WPPPPRVPRGSG [Ac-WPPPPRVPRGSG-COOH], in experiment [1] (FBP21-tWW), the “entropy loss upon interaction” value was −19.5 cal/mol/deg and the “stoichiometric factor derived from the fit (N)” value was 1.29 ± 0.0257. Moreover, the Kd in experiment [1] (His6-FBP21-tWW, peptide: protein in cell 200 µM, peptide in syringe 4 mM, conjugate 2: 90 µM in cell, FBP21-tWW 1.4 mM in syringe, read-out: KD of the interaction with FBP21-tWW) worked out at 150 ± 6 µM.

As for YPRPPGPPP [YPRPPGPPP], the values for the Kd in experiment [2] and in experiment [3] were 452 ± 45 µM and 68.5 ± 6.9 µM, respectively. Consider RPPCGYPLP, for which the “WW1 KD” value in experiment [2] is recorded as “did not show any binding”. Moreover, the “WW2 KD” value in experiment [3] is on record as “did not show any binding”.

Turning to RPPPPHFPQ, the “WW1 KD” value in experiment [2] is reported as “could not be confirmed as a binder”. In addition, the “WW2 KD” value in experiment [3] is on record as “could not be confirmed as a binder”. Take YPRPTNPRP [YPRPTNPRP]: the Kd was 490 ± 54 µM in experiment [2] and 270 ± 24 µM in experiment [3]. Taken in the same sequence, the figures for Ac-WPPPPRVPR [WPPPPRVPR] were 155 ± 18 µM and 87 ± 3.4 µM.

B1: FBP21-tWW WW1-WW2 (protein)
chain: T1 sequence (O75554 122-196 limits assumed)
On to B1, for which the Kd was determined as 17.6 µM in experiment [4] and 150 µM in experiment [5]. In the case of RKKDPSKGRWVEGITSEGYHYYYDLISGASQWEKPEGFQG [FBP21 WW1 WW1], binding in experiment [6] was put at a Kd of 155 µM. The same measure, in the same setting: the value for LKKTAVKTVWVEGLSEDGFTYYYNTETGESRWEKPDDFIP [FBP21 WW2 WW2] was 87 µM.
